The results in this text go back to patent publication US12234233B2, “Crystal form of phosphodiesterase inhibitor, preparation method therefor and use thereof” (TRANSTHERA SCIENCES (NANJING), INC., priority 2019, dated 2025).

Series [1] is described as follows: Solubility in test solutions at different pHs and water. The format is physicochemical. Conditions: 37° C. As to the method:
Test substances: the compound of formula (I) was prepared by example 1 of the present invention, the crystal form I was prepared by example 2 of the present invention, the crystal form II was prepared by example 16 of the present invention, the crystal form III was prepared by example 20 of the present invention, the crystal form IV was prepared by example 24 of the present invention, the crystal form V was prepared by example 25 of the present invention, the crystal form VI was prepared by example 27 of the present invention, and the crystal form VII was prepared by example 31 of the present invention.
Preparation of Buffered Salt Solutions at Different pHs:
hydrochloric acid solution at pH 1.0:9 ml of hydrochloric acid was pipetted, and water was added for dilution to 1000 ml; the mixture was mixed homogeneously to obtain a hydrochloric acid solution at pH 1.03. Phosphate buffered solution at pH 4.5:1.56 g of sodium dihydrogen phosphate dihydrate was weighed, and 200 ml of water was added to obtain a phosphate buffered solution at pH 4.50. Phosphate buffered solution at pH 6.8:1.56 g of sodium dihydrogen phosphate dihydrate was weighed, and 200 ml of water was added; and the mixture was adjusted to pH 6.80 with 1 mol/L sodium hydroxide solution.
preparation of buffered solutions at different pHs (samples for determining solubility):
50 mg of each test substance was weighed, and 5 ml of the hydrochloric acid solution (pH 1.0) was added; and the mixture was mixed homogeneously with shaking. About 2.5 mg of each test substance was weighed, and 5 ml of the phosphate buffered solution (pH 4.5), 5 ml of the phosphate buffered solution (pH 6.8), and 5 ml of ultrapure water were added, respectively; the mixture was mixed homogeneously with shaking, and then placed in a 37° C. water bath shaker for shaking; the samples were collected at 24 hours and subjected to centrifugation; and the supernatant was taken and directly injected (if the solubility was high, the supernatant was diluted with a 0.1 mol/L hydrochloric acid solution to an appropriate multiple and then injected).
The solubility of the samples was quantitatively calculated according to the single-point external standard method.

The nature of series [2]: Pharmacokinetic evaluation in rats. The format is in vivo, male SD rats. As to the method:
Test substances: the compound of formula (I) was prepared by example 1 of the present invention, and the crystal form I was prepared by example 2 of the present invention.
Administration to Animals and Sample Collection:
the compound of formula (I) for the experiment was dissolved with 2% DMSO+10% PEG400+88% (28% HP-3-CD) physiological saline to prepare a solution; the solution of the test substance was administered to SD rats by gavage at a dose of 5.0 mg/kg; and the blood sampling time points were 15 min, 30 min, 1 h, 2 h, 4 h, 6 h, 8 h and 24 h after administration.
The compound of formula (I) for the experiment was dissolved with 2% DMSO+10% PEG400+88% (28% HP-3-CD) physiological saline to prepare a solution; the solution of the test substance was administered to SD rats by intravenous bolus at a dose of 1 mg/kg; and the blood sampling time points were 5 min, 15 min, 30 min, 1 h, 2 h, 4 h, 6 h, 8 h and 24 h after administration.
The crystal form I for the experiment was dissolved with 5% DMSO+10% PEG400+85% (20% captisol) physiological saline solution to prepare a solution; the solution of the test substance was administered to SD rats by gavage at a dose of 60.0 mg/kg; and the blood sampling time points were 15 min, 30 min, 1 h, 2 h, 4 h, 8 h, 24 h, 30 h and 48 h after administration.
The crystal form I for the experiment was dissolved with 2% DMSO+10% PEG400+88% (28% HP-β-CD) physiological saline to prepare a solution; the solution of the test substance was administered to SD rats by intravenous bolus at a dose of 5 mg/kg; and the blood sampling time points were 5 min, 15 min, 30 min, 1 h, 4 h, 8 h, 12 h and 24 h after administration.
Compound of formula (I): the ordinary SD rats were used and fixed; the tails of the rats were heated in a water bath 10 minutes before each time point; and about 100 μL of blood was collected via a tail vein, and then placed in an anticoagulation tube containing EDTA-K2. The blood sample was centrifuged at 8000 rpm at 4° C. for 6 min to obtain a plasma sample, which was prepared within 30 minutes after blood collection. The plasma was stored in a refrigerator at −80° C. before the test.
Crystal form I: the rats were subjected to jugular vein cannulation (JVC); each time, about 0.35 ml of blood was collected from the rats via a jugular vein cannula into a centrifuge tube containing 5 μl of 15% EDTA-K2; the mixture was gently mixed to obtain a homogeneous mixture, and then the centrifuge tube was placed in an ice bath immediately. Within 1 hour after collecting whole blood, the mixture was centrifuged at 4° C. and 2400×g for 5 minutes, and the supernatant was immediately collected to obtain a plasma sample. The plasma was stored in a refrigerator at −80° C. before the test.
the plasma sample to be tested was taken out from the −80° C. refrigerator, subjected to natural melting at room temperature, and then vortexed for 5 min; […] of the plasma sample was precisely pipetted into a 1.5 mL centrifuge tube; […] of the internal standard working solution (tolbutamide in methanol) at a concentration of 100 ng/mL was added, and the mixture was mixed homogeneously; the homogeneous mixture was vortexed for 5 min, and then centrifuged at 12000 rpm for 5 min; 50 μL of the supernatant was precisely pipetted into a 96-well plate pre-filled with 150 μL of water/well; and the plate was vortexed for 5 min for homogenization, and subjected to LC-MS/MS assay, with a sample loading volume of 5 μL. […]

A short description of series [3]: Stability test of different crystal forms. The format is physicochemical. As to the method: Test substances: the crystal form I was prepared by example 2 of the present invention, the crystal form II was prepared by example 16 of the present invention, the crystal form III was prepared by example 20 of the present invention, the crystal form IV was prepared by example 24 of the present invention, the crystal form V was prepared by example 25 of the present invention, the crystal form VI was prepared by example 27 of the present invention, and the crystal form VII was prepared by example 31 of the present invention.
Method: the appropriate amount of different test substances were taken, and placed at 105° C. for 3 days, and at 60° C. and RH 92.5% under light for 5 days and 10 days, respectively; and the samples were collected on day 0, day 3, day 5 and day 10 to investigate the changes in the trait and content of the samples.
Table 5 and Table 6 show the results of the trait and content after placement at 105° C. for 3 days. Table 7 and Table 8 show the results of the trait and content after placement at 60° C. and RH 92.5% under light for 5 days. Table 9 and Table 10 show the results of the trait and content after placement at RH 92.5% under light for 10 days.

Where [4] appears, read: pH 1.0 hydrochloric acid solution.
[5] abbreviates: pH 4.5 phosphate buffered solution.
Where [6] appears, read: pH 6.8 phosphate buffered solution.
The mark [7] stands for this setting: male SD rats, intravenous bolus 1 mg/kg.

A word on the Tmax: it is the time at which the peak concentration occurs. `CCc1cc2c(N3CCC(C)(OC)CC3)c(C#N)c(=O)[nH]c2cn1` [Compound of formula (I), 6-ethyl-4-(4-methoxy-4-methylpiperidin-1-yl)-2-oxo-1,2-dihydro-1,7-diazanaphthal ene-3-carbonitrile] displayed a 24-hour solubility in series [1] (Water) of 0.17 mg/mL. The 24-hour solubility in series [1] (setting [4]) stood at 5.27 mg/mL. The 24-hour solubility in series [1] (setting [5]) was 0.16 mg/mL. The same compound displayed a 24-hour solubility in series [1] (setting [6]) of 0.16 mg/mL. For the same compound, the time to peak (Tmax) in series [2] (Sprague-Dawley, rat, plasma, po, male SD rats, gavage 5.0 mg/kg) amounted to 30 min. The pharmacokinetic characteristics result in series [2] (conclusion from Table 2, rats) is listed as “excellent pharmacokinetic characteristics”. In addition, in series [2] (male SD rats, gavage 5.0 mg/kg), the “AUClast PO/Dose” value was determined as 387.2 h*ng/mL per mg/kg and the “tz1/2 PO” value is listed as 2.68 h. Moreover, in series [2] (setting [7]), the “AUClast iv/Dose” value is reported as 748 h*ng/mL per mg/kg, the Cl_obs iv amounted to 1.45 L/h/kg, the Vz_obs iv amounted to 2.13 L/kg and the tz1/2 iv is given as 1.25 h.
With `CCc1cc2c(N3CCC(C)(OC)CC3)c(C#N)c(=O)[nH]c2cn1` [Crystal form II, 6-ethyl-4-(4-methoxy-4-methylpiperidin-1-yl)-2-oxo-1,2-dihydro-1,7-diazanaphthal ene-3-carbonitrile], the Content in series [3] (0 day) is recorded as 99.8%; in series [3] (Placed at 105° C. for 3 days), 99.5%; in series [3] (Placed at RH 92.5% for 10 days), 99.8%; in series [3] (Placed under light for 10 days), 99.4%. In addition, the Trait entry in series [3] (0 day), in series [3] (Placed at 105° C. for 3 days), in series [3] (Placed at RH 92.5% for 10 days) and in series [3] (Placed under light for 10 days) was “Yellow powder” each time. Further, the 24-hour solubility in series [1] (Water) came out at 0.16 mg/mL; in series [1] (setting [4]), 4.54 mg/mL; in series [1] (setting [5]), 0.16 mg/mL; in series [1] (setting [6]) it was 0.14 mg/mL.
With `CCc1cc2c(N3CCC(C)(OC)CC3)c(C#N)c(=O)[nH]c2cn1` [Crystal form III, 6-ethyl-4-(4-methoxy-4-methylpiperidin-1-yl)-2-oxo-1,2-dihydro-1,7-diazanaphthal ene-3-carbonitrile], the Content in series [3] (0 day) is reported as 99.9%; in series [3] (Placed at 60° C. for 5 days), 99.9%; in series [3] (Placed at 105° C. for 3 days) it was 99.7%; in series [3] (Placed at RH 92.5% for 5 days), 99.9%; in series [3] (Placed under light for 5 days) it was 99.8%. Besides, the Trait result in series [3] (0 day) and in series [3] (Placed at 105° C. for 3 days) was “Yellow powder” throughout. Also, the 24-hour solubility came to 0.23 mg/mL in series [1] (Water), 0.15 mg/mL in series [1] (setting [5]) and 0.12 mg/mL in series [1] (setting [6]).
In the case of `CCc1cc2c(N3CCC(C)(OC)CC3)c(C#N)c(=O)[nH]c2cn1` [Crystal form IV, 6-ethyl-4-(4-methoxy-4-methylpiperidin-1-yl)-2-oxo-1,2-dihydro-1,7-diazanaphthal ene-3-carbonitrile], the Content was determined as 90.9% in series [3] (0 day), 90.8% in series [3] (Placed at RH 92.5% for 10 days) and 90.9% in series [3] (Placed under light for 10 days). Moreover, the Trait result in series [3] (0 day), in series [3] (Placed at RH 92.5% for 10 days) and in series [3] (Placed under light for 10 days) was “Yellow powder” each time. The 24-hour solubility in series [1] (Water) is 0.14 mg/mL; in series [1] (setting [4]), 1.64 mg/mL; in series [1] (setting [5]), 0.13 mg/mL; in series [1] (setting [6]), 0.13 mg/mL.
With `CCc1cc2c(N3CCC(C)(OC)CC3)c(C#N)c(=O)[nH]c2cn1` [Crystal form V, 6-ethyl-4-(4-methoxy-4-methylpiperidin-1-yl)-2-oxo-1,2-dihydro-1,7-diazanaphthal ene-3-carbonitrile], the Content is listed as 97.3% in series [3] (0 day), 97.4% in series [3] (Placed at RH 92.5% for 10 days) and 98.1% in series [3] (Placed under light for 10 days). In addition, the Trait result in series [3] (0 day), in series [3] (Placed at RH 92.5% for 10 days) and in series [3] (Placed under light for 10 days) was “Yellow powder” in each case. Moreover, the 24-hour solubility was found to be 0.33 mg/mL in series [1] (Water), 4.67 mg/mL in series [1] (setting [4]), 0.35 mg/mL in series [1] (setting [5]) and 0.36 mg/mL in series [1] (setting [6]).
Consider `CCc1cc2c(N3CCC(C)(OC)CC3)c(C#N)c(=O)[nH]c2cn1` [Crystal form VI, 6-ethyl-4-(4-methoxy-4-methylpiperidin-1-yl)-2-oxo-1,2-dihydro-1,7-diazanaphthal ene-3-carbonitrile], for which the Content in series [3] (0 day) is reported as 99.9%; in series [3] (Placed at 60° C. for 5 days), 99.8%; in series [3] (Placed at 105° C. for 3 days), 99.7%; in series [3] (Placed at RH 92.5% for 5 days), 99.9%; in series [3] (Placed under light for 5 days), 99.6%. Besides, the Trait entry in series [3] (0 day) and in series [3] (Placed at 105° C. for 3 days) was “Yellow powder” each time. Also, the 24-hour solubility in series [1] (Water) was found to be 0.26 mg/mL; in series [1] (setting [5]), 0.17 mg/mL; in series [1] (setting [6]), 0.14 mg/mL.
Take `CCc1cc2c(N3CCC(C)(OC)CC3)c(C#N)c(=O)[nH]c2cn1` [Crystal form VII, 6-ethyl-4-(4-methoxy-4-methylpiperidin-1-yl)-2-oxo-1,2-dihydro-1,7-diazanaphthal ene-3-carbonitrile]: the Content is 100.0% in series [3] (0 day), 99.9% in series [3] (Placed at 60° C. for 5 days), 100.0% in series [3] (Placed at RH 92.5% for 5 days) and 99.6% in series [3] (Placed under light for 5 days). The 24-hour solubility in series [1] (Water) amounted to 0.15 mg/mL; in series [1] (setting [4]), 7.55 mg/mL; in series [1] (setting [5]), 0.14 mg/mL; in series [1] (setting [6]), 0.13 mg/mL.
